A short description of data set [1]: Fecal excretion of phenolic metabolites after intake of the GCPE nutraceutical. The note with it: feces.
Data set [2] in a line: Urinary excretion of phenolic metabolites after intake of the GCPE nutraceutical. The note with it: for Cumulative urinary excretion, Total 0–24 h / Urinary excretion: urine; for Cumulative urinary excretion, Total 0–24 h: mean ± SEM, n = 9.
Data set [3] in a line: Plasma pharmacokinetics of phenolic metabolites after intake of the GCPE nutraceutical (LC-MS-QToF). Particulars: for Cmax: mean ± SEM, n = 9; for AUC(0-t) / Tmax: 300 mg hydroxycinnamic acids; for AUC(0-t): AUC0–24h; for Tmax: Tmax (h) or Range.

Regarding `COc1cc(/C=C/C(=O)OC2[C@H](O)CC(O)(C(=O)O)C[C@H]2O)ccc1O` (stereo partly drawn) [4-Feruloylquinic acid], the “Amount of fecal metabolite excreted at 0 h” value (from here on “Amount … at 0 h”) in data set [1] (week 8) stood at 0.001 ± 0.001 µmol/g. For the same compound, the “Amount of fecal metabolite excreted at 24 h” value (from here on “Amount … at 24 h”) in data set [1] (week 8) is 0.0004 ± 0.0004 µmol/g. For the same compound, the “Cumulative urinary excretion, Total 0–24 h” value (shortened to “Cumulative urinary excretion”) in data set [2] (week 0) is reported as 0.4 ± 0.2 µmol; in data set [2] (week 8) it was 0.4 ± 0.1 µmol. In addition, the Amount excreted in urine, 0- 3 h in data set [2] (week 0, interval 0–3 h) was found to be 0.2 ± 0.1 µmol; in data set [2] (week 8, interval 0–3 h), 0.21 ± 0.08 µmol. Besides, the Amount excreted in urine, 3-6 h in data set [2] (week 0, interval 3–6 h) came out at 0.15 ± 0.05 µmol; in data set [2] (week 8, interval 3–6 h), 0.13 ± 0.03 µmol. The Amount excreted in urine, 6-9 h in data set [2] (week 0, interval 6–9 h) is 0.02 ± 0.01 µmol; in data set [2] (week 8, interval 6–9 h) it was 0.03 ± 0.01 µmol. Moreover, in data set [2] (week 0, interval 9–11 h), the Amount excreted in urine, 9-11 h was determined as 0.003 ± 0.002 µmol. Also, the Amount excreted in urine, 11-24 h in data set [2] (week 8, interval 11–24 h) came out at 0.02 ± 0.02 µmol. The “AUC0–24h” value in data set [3] (week 0) came out at 0.06 ± 0.01 µM/min; in data set [3] (week 8) it was 0.07 ± 0.01 µM/min. For the same compound, the Cmax (in general, the peak of the concentration-time curve) was found to be 29 ± 4 nM in data set [3] (week 0, GCPE nutraceutical with 300 mg hydroxycinnamic acids) and 31 ± 4 nM in data set [3] (week 8, GCPE nutraceutical with 300 mg hydroxycinnamic acids). For the same compound, the “Tmax (h) or Range” value in data set [3] (week 0, first peak where biphasic) is listed as 0.9 ± 0.1 h; in data set [3] (week 8, first peak where biphasic), 0.9 ± 0.1 h.

Regarding `O=C(O)CCc1ccc(O)cc1` [DHCoA, 3-(4′-Hydroxyphenyl)propanoic acid], the “Amount … at 0 h” value in data set [1] (week 0, mean ± SEM, n = 9) stood at 0.005 ± 0.003 µmol/g; in data set [1] (week 8) it was 0.006 ± 0.006 µmol/g. Moreover, the “Amount … at 24 h” value is 0.005 ± 0.005 µmol/g in data set [1] (week 0) and 0.014 ± 0.005 µmol/g in data set [1] (week 8). Besides, the Urinary excretion in data set [2] (week 0) amounted to 4 µmol/24 h; in data set [2] (week 8), 6 µmol/24 h. Besides, the “Cumulative urinary excretion” value in data set [2] (week 0) was 4 ± 1 µmol; in data set [2] (week 8), 6 ± 2 µmol. For the same compound, the Amount excreted in urine, 0- 3 h was 0.16 ± 0.04 µmol in data set [2] (week 0, interval 0–3 h) and 0.4 ± 0.2 µmol in data set [2] (week 8, interval 0–3 h). Further, the Amount excreted in urine, 3-6 h in data set [2] (week 0, interval 3–6 h) worked out at 0.09 ± 0.02 µmol; in data set [2] (week 8, interval 3–6 h), 0.3 ± 0.1 µmol. Also, the Amount excreted in urine, 6-9 h stood at 0.5 ± 0.2 µmol in data set [2] (week 0, interval 6–9 h) and 0.9 ± 0.3 µmol in data set [2] (week 8, interval 6–9 h). The Amount excreted in urine, 9-11 h in data set [2] (week 0, interval 9–11 h) worked out at 0.6 ± 0.2 µmol; in data set [2] (week 8, interval 9–11 h), 0.8 ± 0.3 µmol. For the same compound, the Amount excreted in urine, 11-24 h in data set [2] (week 0, interval 11–24 h) amounted to 1.4 ± 0.4 µmol; in data set [2] (week 8, interval 11–24 h), 1 ± 0.2 µmol.

In the case of `COc1cc(C(=O)O)ccc1O` [4-Hydroxy-3-methoxybenzoic acid], the “Amount … at 0 h” value in data set [1] (week 0, mean ± SEM, n = 9) came to 0.06 ± 0.03 µmol/g; in data set [1] (week 8), 0.006 ± 0.006 µmol/g. Moreover, the AUC(0-t) (usually the area under the concentration-time curve up to a stated or last time point) in data set [3] (human, oral, week 0) amounted to 9 ± 2 µM·h; in data set [3] (human, oral, week 8) it was 14 ± 4 µM·h. Besides, the Tmax (as a rule, the time at which the peak concentration occurs) in data set [3] (human, oral, week 0, first peak where biphasic) came to 7 ± 3 h; in data set [3] (human, oral, week 8, first peak where biphasic), 7 ± 2 h. The Cmax came out at 1100 ± 200 nM in data set [3] (human, oral, 300 mg, Cmax, week 0, GCPE nutraceutical with 300 mg hydroxycinnamic acids) and 1600 ± 400 nM in data set [3] (human, oral, 300 mg, Cmax, week 8, GCPE nutraceutical with 300 mg hydroxycinnamic acids).

For the compound `O=C(O)c1ccc(O)c(O)c1` [3,4-Dihydroxybenzoic acid], the “Amount … at 0 h” value in data set [1] (week 0, mean ± SEM, n = 9) stood at 0.016 ± 0.006 µmol/g; in data set [1] (week 0, mean ± SEM, n = 9, listed as 3,4-dihydroxybenzoic acid) it was 0.016 µmol/g; in data set [1] (week 8), 0.026 ± 0.008 µmol/g; in data set [1] (week 8, listed as 3,4-dihydroxybenzoic acid), 0.026 µmol/g. Moreover, the “Amount … at 24 h” value is recorded as 0.018 ± 0.005 µmol/g in data set [1] (week 0) and 0.04 ± 0.01 µmol/g in data set [1] (week 8). Besides, the entries for the “Cumulative urinary excretion” value in data set [2] (week 0) and in data set [2] (week 8) were 0.13 ± 0.02 µmol and 0.18 ± 0.04 µmol, respectively. Moreover, the Amount excreted in urine, 0- 3 h in data set [2] (week 0, interval 0–3 h) was determined as 0.016 ± 0.005 µmol; in data set [2] (week 8, interval 0–3 h) it was 0.03 ± 0.01 µmol. For the same compound, the Amount excreted in urine, 3-6 h came out at 0.007 ± 0.003 µmol in data set [2] (week 0, interval 3–6 h) and 0.014 ± 0.003 µmol in data set [2] (week 8, interval 3–6 h). In addition, the Amount excreted in urine, 6-9 h in data set [2] (week 0, interval 6–9 h) is 0.017 ± 0.005 µmol; in data set [2] (week 8, interval 6–9 h) it was 0.027 ± 0.007 µmol. Further, the Amount excreted in urine, 9-11 h was 0.018 ± 0.006 µmol in data set [2] (week 0, interval 9–11 h) and 0.018 ± 0.007 µmol in data set [2] (week 8, interval 9–11 h). Besides, the Amount excreted in urine, 11-24 h was found to be 0.035 ± 0.009 µmol in data set [2] (week 0, interval 11–24 h) and 0.03 ± 0.009 µmol in data set [2] (week 8, interval 11–24 h).

On to `O=C(O)/C=C/c1ccc(O)c(O)c1` [CA, 3′,4′-Dihydroxycinnamic acid], for which, in data set [1] (week 8), the “Amount … at 0 h” value worked out at 0.003 ± 0.002 µmol/g. The “Amount … at 24 h” value in data set [1] (week 0) was 0.0003 ± 0.0003 µmol/g; in data set [1] (week 8), 0.003 ± 0.003 µmol/g. Further, the “Cumulative urinary excretion” value in data set [2] (week 0) was found to be 0.42 ± 0.06 µmol; in data set [2] (week 8) it was 0.45 ± 0.09 µmol. The Amount excreted in urine, 0- 3 h in data set [2] (week 0, interval 0–3 h) came out at 0.13 ± 0.03 µmol; in data set [2] (week 8, interval 0–3 h) it was 0.12 ± 0.03 µmol. In addition, the Amount excreted in urine, 3-6 h in data set [2] (week 0, interval 3–6 h) stood at 0.08 ± 0.02 µmol; in data set [2] (week 8, interval 3–6 h), 0.06 ± 0.01 µmol. In addition, the Amount excreted in urine, 6-9 h came out at 0.08 ± 0.03 µmol in data set [2] (week 0, interval 6–9 h) and 0.11 ± 0.02 µmol in data set [2] (week 8, interval 6–9 h). In addition, the Amount excreted in urine, 9-11 h was 0.023 ± 0.008 µmol in data set [2] (week 0, interval 9–11 h) and 0.06 ± 0.03 µmol in data set [2] (week 8, interval 9–11 h). The Amount excreted in urine, 11-24 h was determined as 0.12 ± 0.02 µmol in data set [2] (week 0, interval 11–24 h) and 0.11 ± 0.03 µmol in data set [2] (week 8, interval 11–24 h).

`O=C(CCc1ccc(O)c(O)c1)OC1CC(O)(C(=O)O)CC(O)C1O` (stereo not drawn) [5-Dihydrocaffeoylquinic acid]: the “Amount … at 0 h” value is 0.04 ± 0.01 µmol/g in data set [1] (week 0, mean ± SEM, n = 9) and 0.06 ± 0.02 µmol/g in data set [1] (week 8). Besides, the “Amount … at 24 h” value in data set [1] (week 0) was found to be 0.05 ± 0.01 µmol/g; in data set [1] (week 8) it was 0.08 ± 0.02 µmol/g. Also, the results for the “Cumulative urinary excretion” value in data set [2] (week 0) and in data set [2] (week 8) were 0.03 ± 0.02 µmol and 0.03 ± 0.01 µmol, respectively. Besides, the Amount excreted in urine, 0- 3 h amounted to 0.012 ± 0.006 µmol in data set [2] (week 0, interval 0–3 h) and 0.004 ± 0.003 µmol in data set [2] (week 8, interval 0–3 h). Moreover, the Amount excreted in urine, 3-6 h in data set [2] (week 0, interval 3–6 h) was 0.005 ± 0.003 µmol; in data set [2] (week 8, interval 3–6 h), 0.002 ± 0.001 µmol. In addition, the Amount excreted in urine, 6-9 h was determined as 0.003 ± 0.002 µmol in data set [2] (week 0, interval 6–9 h) and 0.002 ± 0.002 µmol in data set [2] (week 8, interval 6–9 h). The Amount excreted in urine, 9-11 h is 0.003 ± 0.002 µmol in data set [2] (week 0, interval 9–11 h) and 0.002 ± 0.002 µmol in data set [2] (week 8, interval 9–11 h). In addition, the Amount excreted in urine, 11-24 h in data set [2] (week 0, interval 11–24 h) was 0.01 ± 0.004 µmol; in data set [2] (week 8, interval 11–24 h), 0.015 ± 0.008 µmol.

The values are drawn from article PMC9230201, “Sustained Consumption of a Decaffeinated Green Coffee Nutraceutical Has Limited Effects on Phenolic Metabolism and Bioavailability in Overweight/Obese Subjects” (Nutrients, 2022).
